Test results published in ChEMBL document CHEMBL5143672, “New diarylpentanoids and chalcones as potential antimicrobial adjuvants” (2022).
In brackets after ≈: the same amount, converted by molar mass.

Legend:
[1] = Inhibition of Multidrug resistance efflux pump in Staphylococcus aureus 272123 assessed as relative fluorescence index using ethidium bromide as substrate at 25 uM by fluorescence based analysis
[2] = test system: Staphylococcus aureus; test: Inhibition of biofilm formation in Staphylococcus aureus ATCC 25923 at 100 uM incubated for 48 hrs by crystal violet staining based analysis; assay type: functional
[3] = test system: Staphylococcus aureus; test: Inhibition of biofilm formation in Staphylococcus aureus 272123 at 100 uM incubated for 48 hrs by crystal violet staining based analysis; assay type: functional
[4] = test system: Escherichia coli; test: Antibacterial activity against Escherichia coli ATCC 25922 assessed as inhibition of bacterial growth by broth microdilution method; assay type: functional
[5] = test system: Pseudomonas aeruginosa; test: Antibacterial activity against Pseudomonas aeruginosa ATCC 27853 assessed as inhibition of bacterial growth by broth microdilution method; assay type: functional
[6] = test system: Salmonella typhimurium; test: Antibacterial activity against Salmonella enterica serovar typhimurium SL1344 (SE03) assessed as inhibition of bacterial growth by broth microdilution method; assay type: functional, Salmonella enterica subsp. enterica serovar Typhimurium
[7] = test system: Staphylococcus aureus; test: Antibacterial activity against Staphylococcus aureus ATCC 25923 assessed as inhibition of bacterial growth by broth microdilution method; assay type: functional
[8] = test system: Enterococcus faecalis; test: Antibacterial activity against Enterococcus faecalis ATCC 29212 assessed as inhibition of bacterial growth by broth microdilution method; assay type: functional
[9] = test system: Staphylococcus aureus; test: Antibacterial activity against methicillin and ofloxacin-resistant Staphylococcus aureus 272123 assessed as inhibition of bacterial growth by broth microdilution method; assay type: functional
[10] = test system: Candida albicans; test: Antifungal activity against Candidia albicans ATCC 10231 assessed as inhibition of fungal growth by broth microdilution method; assay type: functional
[11] = test system: Aspergillus fumigatus; test: Antifungal activity against Aspergillus fumigatus ATCC 204305 assessed as inhibition of fungal growth by broth microdilution method; assay type: functional
[12] = test system: Trichophyton rubrum; test: Antifungal activity against Trichophyton rubrum FF5 assessed as inhibition of fungal growth by broth microdilution method; assay type: functional
[13] = test system: Escherichia coli; test: Antimicrobial adjuvant activity against ESBL-producing Escherichia coli SA/2 assessed as potentiation of cefotaxime-induced antibacterial activity by measuring fold reduction in cefotaxime MIC at 64 ug/ml by broth microdilution method; assay type: functional; details: dose 64 µg/ml
[14] = test system: Enterococcus faecalis; test: Antimicrobial adjuvant activity against Enterococcus faecalis B3/101 assessed as potentiation of vancomycin-induced antibacterial activity by measuring fold reduction in vancomycin MIC at 64 ug/ml by broth microdilution method; assay type: functional; details: dose 64 µg/ml
[15] = test system: Salmonella enterica subsp. enterica serovar Typhimurium; test: Inhibition of Multidrug resistance efflux pump in Salmonella enterica serovar typhimurium SL1344 (SE03) assessed as relative fluorescence index using ethidium bromide as substrate at 50 uM by fluorescence based analysis
[16] = Inhibition of Multidrug resistance efflux pump in Staphylococcus aureus 272123 assessed as relative fluorescence index using ethidium bromide as substrate at 50 uM by fluorescence based analysis
[17] = Inhibition of quorum sensing system in Chromobacterium violaceum wild type 85 assessed as reduction in pigment production incubated for 24 to 48 hrs; details: time 24-48 hrs
[18] = test system: Serratia marcescens; test: Inhibition of quorum sensing system in Serratia marcescens AS-1 assessed as reduction in pigment production incubated for 24 to 48 hrs; details: time 24-48 hrs
[19] = Inhibition of quorum sensing system in Chromobacterium violaceum CV026 assessed as reduction in pigment production co-cultured with Sphingomonas paucimobilis Ezf 10-17 for 24 to 48 hrs; details: time 24-48 hrs
[20] = test system: Staphylococcus aureus; test: Antibacterial activity against Staphylococcus aureus ATCC 25923 assessed as inhibition zone incubated for 24 hrs by disc diffusion method; assay type: functional
[21] = test system: Staphylococcus epidermidis; test: Antibacterial activity against Staphylococcus epidermidis ATCC 12228 assessed as inhibition zone incubated for 24 hrs by disc diffusion method; assay type: functional
[22] = test system: Pseudomonas aeruginosa; test: Antibacterial activity against Pseudomonas aeruginosa ATCC 27853 assessed as inhibition zone incubated for 24 hrs by disc diffusion method; assay type: functional
[23] = test system: Klebsiella pneumoniae; test: Antibacterial activity against Klebsiella pneumoniae ATCC 13883 assessed as inhibition zone incubated for 24 hrs by disc diffusion method; assay type: functional
[24] = test system: Escherichia coli; test: Antibacterial activity against Escherichia coli ATCC 25922 assessed as inhibition zone incubated for 24 hrs by disc diffusion method; assay type: functional
[25] = test system: Candida albicans; test: Antifungal activity against Candida albicans ATCC 10231 assessed as inhibition of fungal growth incubated for 18 hrs by optical density based analysis; assay type: functional
[26] = test system: Micrococcus luteus; test: Antibacterial activity against Micrococcus luteus 28001 assessed as inhibition zone incubated for 24 hrs by agar plate method; assay type: functional
[27] = test system: Enterobacter cloacae; test: Antibacterial activity against Enterobacter cloacae 45301 assessed as inhibition zone incubated for 24 hrs by agar plate method; assay type: functional
[28] = test system: Salmonella enterica subsp. enterica serovar Typhimurium; test: Inhibition of Multidrug resistance efflux pump in Salmonella enterica serovar typhimurium SL1344 (SE03) assessed as relative fluorescence index using ethidium bromide as substrate at 25 uM by fluorescence based analysis

| Compound | inhibition at 100 µM [2] [%] | inhibition at 100 µM [3] [%] | MIC [4] [µg/mL] | MIC [5] [µg/mL] | MIC [6] [µg/mL] | MIC [7] [µg/mL] | MIC [8] [µg/mL] | MIC [9] [µg/mL] | MIC [10] [µg/mL] | MIC [11] [µg/mL] | MIC [12] [µg/mL] | fold change (FC) [14] | RFU [15] | RFU [16] | Activity [17] [mm] | Activity [18] [mm] | Activity [19] [mm] | other results |
| --- | --- | --- | --- | --- | --- | --- | --- | --- | --- | --- | --- | --- | --- | --- | --- | --- | --- | --- |
| COC(=O)[C@H]1[C@H]2C[C@@H]3c4[nH]c5cc(OC)ccc5c4CCN3C[C@H]2C[C@@H](OC(=O)c2cc(OC)c(OC)c(OC)c2)[C@@H]1OC [RESERPINE] | 22.3 | 72.1 | – | – | – | – | – | – | – | – | – | – | – | – | – | – | – | RFU [1]: 0.35 |
| COc1ccccc1/C=C1\CCc2ccccc2C1=O | 0 | 83.3 | > 64 | > 64 | > 64 | > 64 | > 64 | > 64 | > 128 | > 128 | > 128 | 2 | 1.32 | 0.88 | 0 | 0 | 48 | fold change (FC) [13]: 2 |
| COc1cccc(/C=C2\COC/C(=C\c3cccc(OC)c3OC)C2=O)c1OC | 0 | 46.9 | > 64 | > 64 | > 64 | > 64 | > 64 | > 64 | > 128 | > 128 | > 128 | 32 | 0.12 | 0.44 | 0 | 0 | 31 | fold change (FC) [13]: 16 |
| COc1ccccc1/C=C1\CCC/C(=C\c2ccccc2OC)C1=O | 0 | 65.9 | > 64 | > 64 | > 64 | > 64 | > 64 | > 64 | > 128 | > 128 | > 128 | 2 | -0.31 | 0.48 | 0 | 0 | 0 | – |
| COc1cccc(/C=C2\CCc3ccccc3C2=O)c1 | – | – | – | – | – | – | – | – | – | – | – | – | – | – | – | – | – | inhibition zone (IZ) [20]: 18 mm; inhibition zone (IZ) [21]: 15 mm; inhibition zone (IZ) [22]: 18 mm; inhibition zone (IZ) [23]: 18 mm; inhibition zone (IZ) [24]: 17 mm |
| COc1cc(OC)c2c(c1)OC/C(=C\c1ccccc1)C2=O | – | – | – | – | – | – | – | – | – | – | – | – | – | – | – | – | – | MIC [25]: 25 µM (≈ 7.41 µg/mL) |
| COc1cc(/C=C2\CCC/C(=C\c3cc(OC)c(OC)c(OC)c3)C2=O)cc(OC)c1OC | – | – | – | – | – | – | – | – | – | – | – | – | – | – | – | – | – | inhibition zone (IZ) [26]: 9 mm; inhibition zone (IZ) [27]: 10 mm |
| N#CC(C#N)=NNc1cccc(Cl)c1 | – | – | – | – | – | – | – | – | – | – | – | – | – | – | – | – | – | RFU [28]: 0.3 |
| O=C1/C(=C/c2ccccc2Br)CC/C1=C\c1ccccc1Br | – | – | – | – | – | – | – | – | – | – | – | – | – | – | – | – | – | inhibition zone (IZ) [27]: 10 mm |
